Test results reported in the Bradley open melting point set (2014).
Several values for one entry are separate records, joined by “and”; a condition that tells them apart may be missing. Identical values can stand only once.

| melting point | SMILES |
| --- | --- |
| 100 °C | CC(C)NCC(O)c1cc(O)cc(O)c1 (stereo not drawn) [metaproterenol] |
| -183 °C | C [methane] |
| 67 °C | CS(=O)(=O)OS(C)(=O)=O [methanesulfonic anhydride] |
| 126 °C | COc1ccc(C(=O)c2ccccc2Cl)cc1OC [methanone, (2-chlorophenyl)(3,4-dimethoxyphenyl)-] |
| 8 °C | COCC(=O)O [methoxyacetic acid] |
| 174 °C | COC(=O)c1ccc2[nH]nnc2c1 [methyl 1h-benzotriazole-5-carboxylate] |
| 81 °C | COC(=O)C1(C)C(C)=Nc2ccccc21 (stereo not drawn) [methyl 2,3-dimethyl-3H-indole-3-carboxylate] |
| 201 °C | COC(=O)c1cc(O)c(O)c(O)c1 [methyl 3,4,5-trihydroxybenzoate] |
| 84 °C | COC(=O)CCC(C)C1CCC2C3C=CC4CC(OC(C)=O)CCC4(C)C3CC(OC(C)=O)C12C (stereo not drawn) [methyl 3,12-bis(acetyloxy)chol-6-en-24-oate] |
| 130 °C | COC(=O)CCC(C)C1CCC2C3CCC4CC(=O)CCC4(C)C3CC(=O)C12C (stereo not drawn) [methyl 3,12-dioxocholan-24-oate] |
| 65 °C | COC(=O)c1sccc1N [methyl 3-aminothiophene-2-carboxylate] |
| 117 °C | COC(=O)CCC(C)C1CCC2C3CCC4CC(=O)CCC4(C)C3CCC12C (stereo not drawn) [methyl 3-oxocholan-24-oate] |
| 100 °C | COC(=O)c1ccc(N(C)C)cc1 [methyl 4-dimethylaminobenzoate] |
| 123 °C | COC(=O)C1C(=O)C=C(O)CC1C (stereo not drawn) [methyl 4-hydroxy-6-methyl-2-oxo-3-cyclohexene-1-carboxylate] |
| 166 °C | COC(=O)CCC(C)C1CCC2C3C(OC(C)=O)CC4CC(=O)CCC4(C)C3CC(=O)C12C (stereo not drawn) [methyl 7-(acetyloxy)-3,12-dioxocholan-24-oate] |
| 28 °C | COC(=O)/C(=C\c1ccccc1)Cc1ccccc1 [methyl (2Z)-2-benzyl-3-phenylprop-2-enoate] |
| -80 °C | COC(=O)CC(C)=O [methyl acetoacetate] |
| 177 °C | CO[C@@H]1O[C@H](CO)[C@H](O)[C@H](O)[C@H]1O [methyl beta-d-galactopyranoside] |
| 88 °C | COC(=O)C(C#N)c1ccccc1[N+](=O)[O-] (stereo not drawn) [methyl cyano(2-nitrophenyl)acetate] |
| 10 °C | CCCCCCCC/C=C/CCCCCCCC(=O)OC [methyl elaidate] |
| 62 °C | COC(=O)C(O)c1ccccc1[N+](=O)[O-] (stereo not drawn) [methyl hydroxy(2-nitrophenyl)acetate] |
| -48 °C | C=C(C)C(=O)OC [methyl methacrylate] |
| 61 °C | COC(=O)CS(C)(=O)=O [methyl methylsulfonylacetate] |
| 34 °C | COC(=O)c1ccc(C)cc1 [methyl p-toluate] |
| 87 °C | CS(=O)(=O)c1ccccc1 [methyl phenyl sulfone] |
| -88 °C | CCC(=O)OC [methyl propionate] |
| 80 °C | COC(=O)c1cccc([N+](=O)[O-])c1 [methyl_3-nitrobenzoate] |

| melting point | SMILES |
| --- | --- |
| 51 °C | COC(=O)c1ccc(CO)cc1 [methyl_4-hydroxymethylbenzoate] |
| 37 °C | COC(=O)c1ccc(C)cc1 [methyl_4-methylbenzoate] |
| -80 °C | COC(=O)CC(C)=O [methyl_acetoacetate] |
| -48 °C | C=C(C)C(=O)OC [methyl_methacrylate] |
| -7 °C | COC(=O)c1ccccc1O [methyl_salicylate] |
| 92 °C | CB(O)O [methylboronic acid] |
| 203 °C | O=P(O)(O)CP(=O)(O)O [methylenediphosphonic acid] |
| 147 °C | CCN(CC)CCNC(=O)c1cc(Cl)c(N)cc1OC [metoclopramide] |
| 252 °C | Cc1ccccc1N1C(=O)c2cc(S(N)(=O)=O)c(Cl)cc2NC1C (stereo not drawn) [metolazone] |
| 221 °C | COC(=O)c1ccc(C(=O)O)cc1 [mono-methyl_terephthalate] |
| -5 °C | C1COCCN1 [morpholine] |
| 280 °C | C#CC1(O)CCC2C3CCc4cc(O)ccc4C3C(OC)CC21C (stereo not drawn) [moxestrol] |
| 124 °C | CC(C)(C)NCC(O)COc1cccc2c1CC(O)C(O)C2 (stereo not drawn) [nadolol] |
| 114 °C | CN(C)C(=S)Sc1ccc2ccccc2c1 [naphthalen-2-yl dimethyldithiocarbamate] |
| 80 °C and 82 °C and 81 °C | c1ccc2ccccc2c1 [naphthalene] |
| 54 °C | CC(C)(C)CO [neopentyl alcohol] |
| -20 °C | CC(C)(C)CCl [neopentyl chloride] |
| 248 °C | Cc1ccnc2c1NC(=O)c1cccnc1N2C1CC1 [nevirapine] |
| 135 °C | O=C(OC[C@H]1O[C@](O)(COC(=O)c2cccnc2)[C@@H](OC(=O)c2cccnc2)[C@@H]1OC(=O)c1cccnc1)c1cccnc1 [nicofuranose] |
| 130 °C | NC(=O)c1cccnc1 [nicotinamide] |
| 173 °C | O=C(OC)\C1=C(\N/C(=C(/C(=O)OC)C1c2ccccc2[N+]([O-])=O)C)C [nifedipine] |
| 263 °C | O=C1CN(/N=C/c2ccc([N+](=O)[O-])o2)C(=O)N1 [nitrofurantoin] |
| 12 °C | CCCCCCCCC(=O)O [nonanoic_acid] |
| 204 °C | C#C[C@]1(O)CC[C@H]2[C@@H]3CCC4=CC(=O)CC[C@@H]4[C@H]3CC[C@@]21C [norethindrone] |
| 75 °C | C=CCC(CC)(CC)C(N)=O [novonal] |
| 88 °C | CNC(=S)NCO [noxythiolin] |
| 122 °C | CC(=O)c1ccccc1C(N)=O [o-acetylbenzamide] |

| SMILES | melting point |
| --- | --- |
| COCC(=O)N(c1c(C)cccc1C)C(C)C(=O)OC (stereo not drawn) [metalaxyl] | 72 °C |
| C=C(C)C=O [methacrolein] | -81 °C |
| CS(=O)(=O)Cl [methanesulfonyl chloride] | -33 °C |
| CCC1(CC)C(=O)NC(=O)N(C)C1=O [metharbital] | 150 °C |
| C=CC(=O)OC [methyl acrylate] | -75 °C |
| COC(N)=O [methyl carbamate] | 55 °C |
| COS(=O)(=O)c1ccc(C)cc1 [methyl p-toluenesulfonate] | 26 °C |
| COC(=O)c1cccc(OC(C)=O)c1 [methyl_3-acetoxybenzoate] | 29 °C |
| CC#N [methyl_cyanide] | -46 °C |
| C[C@]12CCC(=O)C=C1CC[C@@H]1[C@@H]2CC[C@@]2(C)[C@H]1CC[C@]2(C)O [methyltestosterone] | 164 °C |
| CCN(CC)c1ccccc1 [n,n-diethylaniline] | -38 °C |
| C[N+](=O)[O-] [nitromethane] | -29 °C |
| Clc1ccc(C(c2ccccc2Cl)C(Cl)(Cl)Cl)cc1 (stereo not drawn) [o,p'-DDT] | 75 °C |
| Cc1ccccc1O [o-Cresol] | 33 °C |
| CC(=O)Oc1ccccc1C=O [o-acetoxybenzaldehyde] | 38 °C |
| CC(=O)c1ccccc1C#N [o-acetyl_benzonitrile] | 48 °C |
| Nc1ccccc1C(=O)O [o-aminobenzoic_acid] | 146 °C |
| COc1ccccc1N [o-anisidine] [listing 1 of 2 here] | 6 °C |
| COc1ccccc1N [o-anisidine] [listing 2 of 2 here] | 6 °C |
